According to PMC6152192, “Novel Methylselenoesters as Antiproliferative Agents” (Molecules : A Journal of Synthetic Chemistry and Natural …, 2017):

Experiments:
[1] = tested on: K-562 (chronic myelogenous leukemia); assay: MTT viability assay, K-562; format: cell-based; conditions: K-562, 72 h, MTT; for CC50: read-out: LC50 (the source's name)
Method in brief: (§1)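 Cells (10,000/well; RPMI or, for BEAS-2B, DMEM with 10% FBS; 37 °C, 5% CO2) were treated 72 h with six concentrations from 0.1 to 100 μM, diluted from 0.01 M DMSO stock. MTT was added for 4 h, formazan dissolved in DMSO, absorbance read at 550 nm; GI50, TGI and LC50 derived.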

[2] = tested on: MCF7 (mammary adenocarcinoma); assay: MTT viability assay, MCF7; format: cell-based; conditions: MCF7, 72 h, MTT; for CC50: read-out: LC50 (the source's name)
Method in brief: as §1

MCF7 cells = assay: Cell death analysis (TUNEL, Apo-Direct kit, flow cytometry); format: cell-based; conditions: for dead cells: MCF7, 30 μM, TUNEL; for cell death time dependence: MCF7, time-course, 15 μM compound 5 or 30 μM compound 15, TUNEL
Method: Induction of cell death is the major aim of antitumor drugs. We analyzed cell death progression using the TUNEL technique (in the Apo-Direct kit), which is based on DNA fragmentation. MCF7 cells were treated with increasing concentrations of compounds 5 and 15 for 24 h or with 30 μM of compound 15 or 15 μM of compound 5 for different times. The negative control was treated with vehicle, and camptothecin (6 μM) was included as a positive control.
3 × 10^6 or 2 × 10^6 MCF7 cells were seeded in 25 cm^2 flasks for treatments up to 24 h or 48 h, respectively. DMSO (vehicle) or the dissolved compounds were added 24 h after seeding and cells were incubated for different times at 37 °C under 5% CO2. Cell cycle and cell death were analyzed simultaneously with the Apo-Direct kit (BD Pharmingen, Madrid, Spain), following the manufacturer’s protocol. Briefly, cells were fixed in 1% paraformaldehyde for 45 min at 0 °C, washed with PBS and incubated for at least 30 min in 70% ethanol on ice. Cells were then stained both with FITC-dUTP (1 h, 37 °C) and propidium iodide (30 min, room temperature) and analyzed by flow cytometry using a Coulter Epics XL cytometer (Beckman Coulter, Brea, CA, USA).
Figure 5 Cell death induction is dose and time-dependent for compound 15 in MCF7. MCF7 cells were treated with vehicle (control) or increasing doses of compound 5 or 15 for 24 h. For the time-course experiment, MCF7 cells were treated with vehicle (control), compound 5 (15 μM) or compound 15 (30 μM) for different times. Camptothecin (6 μM) was included as positive control. Cells were stained with the Apo-Direct kit (TUNEL assay) and analyzed by flow cytometry. (A) Dose-dependent cell death at 24 h; (B) Time-course analysis of cell death.

[3] = tested on: glutathione-glutaredoxin (GSH-Grx) system; assay: Glutaredoxin/glutathione assay (NADPH consumption); format: biochemical; conditions: 1 mM GSH, 200 μM NADPH, yeast GR, 1 μM hGrx1 when required, 45 min
Method: The assay was performed as previously described, with minor modifications and adapted for a 96-well plate. A mixture of 0.1 M Tris pH 8, 2 mM EDTA pH = 8, 0.1 mg/mL BSA, 1 mM GSH, 200 μM NADPH, and 0.008 OD/mL yeast GR was prepared (all reagents were purchased from Sigma-Aldrich). Reactions were performed with 1 μM hGrx1 (IMCO Corporation, Stockholm, Sweden) when corresponding and different concentrations of the compounds. A 100 μL mixture was added, and the final volume was adjusted to 110 μL per well. Consumption of NADPH was monitored at A340 on a VersaMax microplate reader (Molecular Devices) for 45 min.
Figure 7 Compounds 5 and 15 are substrates for thioredoxin reductase but not for the glutathione-glutaredoxin system. (A) NADPH consumption indicating reduction of compounds 5, 15 or MSA as control by thioredoxin reductase. The reaction mixture contained 100 nM TrxR1, 227 μM NADPH and the corresponding amount of compound in TE buffer (20 mM Tris, 2 mM EDTA pH = 8); (B) NADPH consumption indicating reduction of MSA by glutathione in the presence or absence of glutaredoxin. The reaction mixture contained the corresponding amount of compound, 0.1 M Tris, 2 mM EDTA pH = 8, 0.1 mg/mL BSA, 1 mM GSH, 200 μM NADPH, 0.008 OD/mL yeast GR and 1 μM hGrx1 when required. Only results for MSA are shown, as compounds 5 and 15 were not reduced.

[4] = tested on: PC-3 (prostate adenocarcinoma); assay: MTT viability assay, PC-3; format: cell-based; conditions: PC-3, 72 h, MTT; for CC50: read-out: LC50 (the source's name)
Method in brief: as §1

[5] = tested on: HT-29 (colorectal adenocarcinoma); assay: MTT viability assay, HT-29; format: cell-based; conditions: HT-29, 72 h, MTT; for CC50: read-out: LC50 (the source's name)
Method in brief: as §1

Substance | GI50 [1] [µM] | TGI [1] [µM] | CC50 [1] [µM] | GI50 [2] [µM] | TGI [2] [µM] | CC50 [2] [µM] | dead cells (MCF7 cells; 4 h) [%] | dead cells (MCF7 cells; 48 h) [%] | cell death time dependence (MCF7 cells) | reduction by GSH in the presence or absence of glutaredoxin (NADPH consumption) [3] | GI50 [4] [µM] | CC50 [4] [µM] | GI50 [5] [µM] | TGI [5] [µM] | CC50 [5] [µM] | TGI [4] [µM]
Dimethyl 2,5-furandicarboselenoate [Compound 15] | 42 ± 3.8 | 70.6 ± 3.4 | 99.2 ± 5.3 | 1.8 ± 0.9 | 7.2 ± 1.9 | 57 ± 4 | 20 | 80 | caused cell death in a time-dependent manner | not reduced | 4.8 ± 0.8 | 47.8 ± 4.4 | 3 ± 0.5 | 6.6 ± 0.4 | 35.8 ± 5 | –
Methyl 3-chlorothiophen-2-carboselenoate [Compound 5] | 38.7 ± 2.1 | 67.0 ± 1.9 | 95.2 ± 2.2 | 3.1 ± 0.9 | 6.9 ± 1.1 | 35.9 ± 4.4 | – | – | highest values of cell death for compound 5 were observed after 4 h treatment | not reduced | 8.6 ± 1.7 | 91.6 ± 3.9 | 3.6 ± 0.3 | 6.3 ± 0.2 | 8.9 ± 0.2 | 47.7 ± 2.9
